One experiment concerns the target mouse TAAR1 (Mus musculus (Mouse), UniProt Q923Y8). Description: Radioligand binding assay on mouse TAAR1.
A further experiment has as its target rat TAAR1 (Rattus norvegicus (Rat), UniProt Q923Y9). The experiment in a line: Radioligand binding assay on rat TAAR1. To be noted: read-out: Ki(μM) rat; rat TAAR1, HEK-293 membranes, second value of cell pair mouse/rat.

The results in this text go back to patent publication US10023559B2 (Hoffmann-La Roche Inc., priority 2014, dated 2018).

Chain of rat TAAR1 (Q923Y9 whole entry): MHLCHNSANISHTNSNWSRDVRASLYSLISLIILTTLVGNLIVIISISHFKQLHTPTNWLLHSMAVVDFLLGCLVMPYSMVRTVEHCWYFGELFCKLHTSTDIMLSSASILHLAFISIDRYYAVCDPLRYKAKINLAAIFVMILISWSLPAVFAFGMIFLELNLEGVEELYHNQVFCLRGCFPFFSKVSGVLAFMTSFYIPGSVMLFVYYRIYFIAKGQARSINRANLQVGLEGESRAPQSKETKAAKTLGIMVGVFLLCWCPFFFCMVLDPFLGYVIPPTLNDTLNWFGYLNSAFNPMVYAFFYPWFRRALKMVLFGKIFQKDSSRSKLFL
Chain of mouse TAAR1 (Q923Y8 whole entry): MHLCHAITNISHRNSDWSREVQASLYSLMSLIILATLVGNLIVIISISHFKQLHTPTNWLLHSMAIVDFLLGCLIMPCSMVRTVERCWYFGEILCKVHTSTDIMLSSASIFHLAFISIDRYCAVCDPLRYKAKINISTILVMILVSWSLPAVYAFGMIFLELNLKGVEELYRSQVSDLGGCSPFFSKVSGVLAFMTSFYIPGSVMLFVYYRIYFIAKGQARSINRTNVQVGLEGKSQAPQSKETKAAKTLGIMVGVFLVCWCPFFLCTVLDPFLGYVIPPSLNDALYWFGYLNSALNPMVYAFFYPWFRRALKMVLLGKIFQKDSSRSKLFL
Experimental for mouse TAAR1: (§1) Membrane Preparation and Radioligand Binding.
HEK-293 cells stably expressing mouse TAAR1 were maintained at 37° C. and 5% CO2 in DMEM high glucose medium, containing fetal calf serum (10%, heat inactivated for 30 min at 56° C.), penicillin/streptomycin (1%), and 375 μg/ml geneticin (Gibco). Cells were released from culture flasks using trypsin/EDTA, harvested, washed twice with ice-cold PBS (without Ca^2+ and Mg^2+), pelleted at 1,000 rpm for 5 min at 4° C., frozen and stored at −80° C. Frozen pellets were suspended in 20 ml HEPES-NaOH (20 mM, pH 7.4) containing 10 mM EDTA and homogenized with a Polytron (PT 6000, Kinematica) at 14,000 rpm for 20 s. The homogenate was centrifuged at 48,000×g for 30 min at 4° C. Subsequently, the supernatant was removed and discarded, and the pellet resuspended in 20 ml HEPES-NaOH (20 mM, pH 7.4) containing 0.1 mM EDTA using the Polytron (20 s at 14,000 rpm). This procedure was repeated and the final pellet resuspended in HEPES-NaOH containing 0.1 mM EDTA and homogenized using the Polytron. Typically, aliquots of 2 ml membrane portions were stored at −80° C. With each new membrane batch the dissociation constant (Kd) was determined via a saturation curve. […] Nonspecific binding was defined as the amount of ^3[H]—(S)-4-[(ethyl-phenyl-amino)-methyl]-4,5-dihydro-oxazol-2-ylamine bound in the presence of 10 M unlabeled ligand. All compounds were tested at a broad range of concentrations (10 pM to 10 μM) in duplicates. […] The 96 deep well plates were incubated for 1 hr at 4° C. Incubations were terminated by rapid filtration through Unifilter-96 plates (Packard Instrument Company) and glass filters GF/C (Perkin Elmer) presoaked for 1 hr in polyethylenimine (0.3%) and washed 3 times with 1 ml of cold binding buffer. After addition of 45 μl of Microscint 40 (PerkinElmer) the Unifilter-96 plate was sealed and after 1 hr the radioactivity counted using a TopCount Microplate Scintillation Counter (Packard Instrument Company).
Experimental for rat TAAR1: as §1
HEK-293 cells stably expressing rat TAAR1 were maintained at 37° C. and 5% CO2 in DMEM high glucose medium, containing fetal calf serum (10%, heat inactivated for 30 min at 56° C.), penicillin/streptomycin (1%), and 375 μg/ml geneticin (Gibco). Cells were released from culture flasks using trypsin/EDTA, harvested, washed twice with ice-cold PBS (without Ca^2+ and Mg^2+), pelleted at 1,000 rpm for 5 min at 4° C., frozen and stored at −80° C. Frozen pellets were suspended in 20 ml HEPES-NaOH (20 mM, pH 7.4) containing 10 mM EDTA and homogenized with a Polytron (PT 6000, Kinematica) at 14,000 rpm for 20 s. The homogenate was centrifuged at 48,000×g for 30 min at 4° C. Subsequently, the supernatant was removed and discarded, and the pellet resuspended in 20 ml HEPES-NaOH (20 mM, pH 7.4) containing 0.1 mM EDTA using the Polytron (20 s at 14,000 rpm). This procedure was repeated and the final pellet resuspended in HEPES-NaOH containing 0.1 mM EDTA and homogenized using the Polytron. Typically, aliquots of 2 ml membrane portions were stored at −80° C. With each new membrane batch the dissociation constant (Kd) was determined via a saturation curve. […] Nonspecific binding was defined as the amount of [H]—(S)-4-[(ethyl-phenyl-amino)-methyl]-4,5-dihydro-oxazol-2-ylamine bound in the presence of 10 M unlabeled ligand. All compounds were tested at a broad range of concentrations (10 pM to 10 μM) in duplicates. […] The 96 deep well plates were incubated for 1 hr at 4° C. Incubations were terminated by rapid filtration through Unifilter-96 plates (Packard Instrument Company) and glass filters GF/C (Perkin Elmer) presoaked for 1 hr in polyethylenimine (0.3%) and washed 3 times with 1 ml of cold binding buffer. After addition of 45 μl of Microscint 40 (PerkinElmer) the Unifilter-96 plate was sealed and after 1 hr the radioactivity counted using a TopCount Microplate Scintillation Counter (Packard Instrument Company).

Usually Ki stands for the dissociation constant of the complex between target and ligand, obtained from inhibition or displacement. Turning to `O=C(Nc1ccc(Cl)c(C(F)(F)F)c1)c1ccc(OC2CNC2)cc1` [Example 37, 4-(azetidin-3-yloxy)-N-(4-chloro-3-(trifluoromethyl)phenyl)benzamide], the values for the Ki at mouse TAAR1 and on rat TAAR1 were 0.7 nM and 0.0026 µM, respectively.
Consider `O=C(Nc1ccc(OC2CNC2)cc1F)c1cnc(C2CC2)nc1` [Example 38, N-[4-(azetidin-3-yloxy)-2-fluoro-phenyl]-2-cyclopropyl-pyrimidine-5-carboxamide], for which the results for the Ki at mouse TAAR1 and on rat TAAR1 were 35.1 nM and 0.853 µM, respectively.
Turning to `O=C(Nc1ccc(OC2CNC2)cc1F)c1cnc(C(F)(F)F)nc1` [Example 39, N-[4-(azetidin-3-yloxy)-2-fluoro-phenyl]-2-(trifluoromethyl)pyrimidine-5-carboxamide], the Ki on mouse TAAR1 was 62.8 nM; on rat TAAR1, 0.476 µM.
In the same order, the values of `O=C(Nc1ccc(OC2CNC2)cc1)c1[nH]nc(C(F)(F)F)c1Cl` [Example 40, N-[4-(azetidin-3-yloxy)phenyl]-4-chloro-3-(trifluoromethyl)-1H-pyrazole-5-carboxamide] are 2.8 nM and 0.0142 µM.
On the same counts, the results for `CCc1n[nH]c(C(=O)Nc2ccc(OC3CNC3)cc2)c1Cl` [Example 41, N-[4-(azetidin-3-yloxy)phenyl]-4-chloro-3-ethyl-1H-pyrazole-5-carboxamide] are 3.5 nM and 0.0392 µM.
On the same counts, the results for `O=C(Nc1ccc(OC2CNC2)cc1)c1[nH]nc(C2CC2)c1F` [Example 42, N-[4-(azetidin-3-yloxy)phenyl]-3-cyclopropyl-4-fluoro-1H-pyrazole-5-carboxamide] are 15 nM and 0.113 µM.
Turning to `Cn1nc(C(=O)Nc2ccc(OC3CNC3)cc2)c(Cl)c1C(F)(F)F` [Example 43, N-[4-(azetidin-3-yloxy)phenyl]-4-chloro-1-methyl-5-(trifluoromethyl)pyrazole-3-carboxamide], the values for the Ki at mouse TAAR1 and at rat TAAR1 were 6.8 nM and 0.0435 µM, respectively.
`O=C(Nc1ccc(SC2CNC2)cc1)c1cnc(C2CC2)nc1` [Example 44, N-[4-(azetidin-3-ylsulfanyl)phenyl]-2-cyclopropyl-pyrimidine-5-carboxamide]: the Ki on mouse TAAR1 is 8.5 nM; at rat TAAR1, 0.165 µM.
In the same order, the values of `O=C(Nc1ccc(SC2CNC2)cc1)c1cnc(C(F)(F)F)nc1` [Example 45, N-[4-(azetidin-3-ylsulfanyl)phenyl]-2-(trifluoromethyl)pyrimidine-5-carboxamide] are 35.5 nM and 0.129 µM.
Turning to `FC1(Cc2ccccc2)CNC1` [Example 46, 3-benzyl-3-fluoro-azetidine], the figures for the Ki on mouse TAAR1 and at rat TAAR1 were 1990 nM and 0.552 µM, respectively.
In the same order, the values of `CCc1n[nH]c(C(=O)Nc2ccc(OC3CNC3)cc2)c1Br` [Example 47, N-[4-(azetidin-3-yloxy)phenyl]-4-bromo-3-ethyl-1H-pyrazole-5-carboxamide] are 3.9 nM and 0.0468 µM.
On the same counts, the results for `Cc1[nH]nc(C(=O)Nc2ccc(OC3CNC3)cc2)c1Br` [Example 48, N-[4-(azetidin-3-yloxy)phenyl]-4-bromo-3-methyl-1H-pyrazole-5-carboxamide] are 14.3 nM and 0.0943 µM.
On to `FC(F)(c1ccc(Br)cc1)C1CNC1` [Example 49, 3-[(4-bromophenyl)-difluoro-methyl]azetidine], for which the Ki on mouse TAAR1 was 1390 nM; at rat TAAR1, 0.291 µM.
With `Brc1ccc(C=C2CNC2)cc1` [Example 50, 3-[(4-bromophenyl)methylene]azetidine], the Ki at mouse TAAR1 turned out to be 793 nM; at rat TAAR1, 0.0998 µM.
Consider `O=C(Nc1ccc(C(F)(F)C2CNC2)cc1)c1ccc(Cl)cc1` [Example 51, N-[4-[azetidin-3-yl(difluoro)methyl]phenyl]-4-chloro-benzamide], for which the Ki at mouse TAAR1 came out at 1.1 nM; on rat TAAR1, 0.0515 µM.
Take `O=C(Nc1ccc(CC2(F)CNC2)cc1)c1ccc(Cl)cc1` [Example 52, 4-chloro-N-[4-[(3-fluoroazetidin-3-yl)methyl]phenyl]benzamide]: the Ki was 0.9 nM on mouse TAAR1 and 0.0035 µM at rat TAAR1.
